Assay results published in ChEMBL document CHEMBL3351990, “Jiangrines A-F and jiangolide from an actinobacterium, Jiangella gansuensis” (J Nat Prod, 2014).

How the values were obtained:
RAW264.7 [1] = assay: Cytotoxicity against mouse RAW264.7 cells assessed as cell viability at 100 uM; format: cell-based; conditions: raw264.7, 100 µM
RAW264.7 [2] = assay: Antiinflammatory activity in mouse RAW264.7 cells assessed as inhibition of LPS-induced NO production incubated for 1 hr prior to LPS-challenge measured after 24 hrs by Greiss assay; format: functional, cell-based
RAW264.7 [3] = assay: Antiinflammatory activity in mouse RAW264.7 cells assessed as inhibition of LPS-induced NO production at 100 uM incubated for 1 hr prior to LPS-challenge measured after 24 hrs by Greiss assay; format: functional

SMILES	Activity (RAW264.7 [1])	IC50 (RAW264.7 [2])	inhibition at 100 µM (RAW264.7 [3])
C[C@H]1/C=C\C[C@H]2[C@@H](CC[C@@H]2O)CC(=O)OC[C@H]2O[C@@H](O1)[C@H](O)[C@@H](O)[C@@H]2O	Non-toxic	61.4 µM	
CC(=O)NCCCCCn1cccc1C=O	Non-toxic	54.9 µM	
O=Cc1ccc(CO)n1CCc1ccc(O)cc1	Non-toxic	58.8 µM	
O=Cc1ccc([C@H](O)[C@H](O)CO)n1CCc1ccc(O)cc1 (relative stereo)	Non-toxic	97.8 µM	
O=Cc1ccc([C@H](O)[C@H](O)CO)n1CCc1c[nH]c2ccccc12 (relative stereo)	Non-toxic	60.7 µM	
COC(=O)[C@@H](N)CCCNC(=N)N[N+](=O)[O-] [L-NAME]		53.6 µM	
CO[C@@H](c1ccc(C=O)n1CCc1ccc(O)cc1)[C@H](O)CO	Non-toxic	30.1 µM	
CO[C@H](c1ccc(C=O)n1CCc1ccc(O)cc1)[C@H](O)CO	Non-toxic	30.1 µM	
O=c1[nH]cnc2c1-c1cccn1CC2	Non-toxic		< 20%
